Experimental data reported in PubChem BioAssay (NCI).
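At the GI50, growth is halved. TGI: total growth inhibition.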

Assays:
Assay in all cases: inhibition of tumour cell growth, NCI panel, 384-well format
MDA-MB-231 breast = system: MDA-MB-231 breast
SR leukemia = system: SR leukemia
A549 NSCLC = system: A549 NSCLC
BT-549 breast = system: BT-549 breast
HL-60(TB) leukemia = system: HL-60(TB) leukemia
OVCAR-3 ovarian = system: OVCAR-3 ovarian
T-47D breast = system: T-47D breast
SF-539 CNS = system: SF-539 CNS
SN12C renal = system: SN12C renal
UO-31 renal = system: UO-31 renal
DU-145 prostate = system: DU-145 prostate
KM12 colon = system: KM12 colon
EKVX NSCLC = system: EKVX NSCLC
COLO 205 colon = system: COLO 205 colon
CAKI-1 renal = system: CAKI-1 renal
MALME-3M melanoma = system: MALME-3M melanoma
SK-MEL-28 melanoma = system: SK-MEL-28 melanoma
SNB-19 CNS = system: SNB-19 CNS
U251 glioblastoma = system: U251 glioblastoma
CCRF-CEM leukemia = system: CCRF-CEM leukemia
NCI-H460 NSCLC = system: NCI-H460 NSCLC
OVCAR-4 ovarian = system: OVCAR-4 ovarian
SF-268 CNS = system: SF-268 CNS
HCT-116 colon = system: HCT-116 colon
UACC-257 melanoma = system: UACC-257 melanoma
PC-3 prostate = system: PC-3 prostate
NCI-H322M lung = system: NCI-H322M lung
MDA-MB-435 melanoma = system: MDA-MB-435 melanoma
SK-MEL-5 melanoma = system: SK-MEL-5 melanoma
SW-620 colon = system: SW-620 colon
M14 melanoma = system: M14 melanoma
OVCAR-8 ovarian = system: OVCAR-8 ovarian
HOP-92 NSCLC = system: HOP-92 NSCLC
SNB-75 CNS = system: SNB-75 CNS
HT29 colon = system: HT29 colon
MCF7 breast = system: MCF7 breast
HOP-62 NSCLC = system: HOP-62 NSCLC
NCI-H522 lung = system: NCI-H522 lung
OVCAR-5 ovarian = system: OVCAR-5 ovarian
MDA-MB-468 breast = system: MDA-MB-468 breast
K-562 leukemia = system: K-562 leukemia
HCC-2998 colon = system: HCC-2998 colon
ACHN renal = system: ACHN renal
MOLT-4 leukemia = system: MOLT-4 leukemia
HCT-15 colon = system: HCT-15 colon
SF-295 CNS = system: SF-295 CNS
RXF 393 renal = system: RXF 393 renal

CC1(N)CCN(c2cnc(-c3cccc(Cl)c3Cl)c(N)n2)CC1
GI50 (MDA-MB-231 breast): 20.2 µM
TGI (MDA-MB-231 breast): 49.6 µM
GI50 (SR leukemia): 7.14 µM
TGI (SR leukemia): 20.3 µM
GI50 (A549 NSCLC): 30.1 µM
TGI (A549 NSCLC): > 100 µM
GI50 (BT-549 breast): 10.6 µM
TGI (BT-549 breast): 24 µM
GI50 (HL-60(TB) leukemia): 23.4 µM
TGI (HL-60(TB) leukemia): 38.1 µM
GI50 (OVCAR-3 ovarian): 13.6 µM
TGI (OVCAR-3 ovarian): 45.3 µM
GI50 (T-47D breast): 13.3 µM
TGI (T-47D breast): 27.9 µM
GI50 (SF-539 CNS): 13.9 µM
TGI (SF-539 CNS): 27.7 µM
GI50 (SN12C renal): 5.63 µM
TGI (SN12C renal): 42.7 µM
GI50 (UO-31 renal): 14.2 µM
TGI (UO-31 renal): > 100 µM
GI50 (DU-145 prostate): 47 µM
TGI (DU-145 prostate): > 100 µM
GI50 (KM12 colon): 6.2 µM
TGI (KM12 colon): 20 µM
GI50 (EKVX NSCLC): 8.83 µM
TGI (EKVX NSCLC): 30.8 µM
GI50 (COLO 205 colon): 21.3 µM
TGI (COLO 205 colon): 41.5 µM
GI50 (CAKI-1 renal): 2.74 µM
TGI (CAKI-1 renal): 16.9 µM
GI50 (MALME-3M melanoma): 14.8 µM
TGI (MALME-3M melanoma): 28 µM
GI50 (SK-MEL-28 melanoma): 16.7 µM
TGI (SK-MEL-28 melanoma): 30.5 µM
GI50 (SNB-19 CNS): 11.9 µM
TGI (SNB-19 CNS): > 74.3 µM
GI50 (U251 glioblastoma): 13.5 µM
TGI (U251 glioblastoma): 27.4 µM
GI50 (CCRF-CEM leukemia): 17 µM
TGI (CCRF-CEM leukemia): 31.2 µM
GI50 (NCI-H460 NSCLC): 18.1 µM
TGI (NCI-H460 NSCLC): 33.3 µM
GI50 (OVCAR-4 ovarian): 14 µM
TGI (OVCAR-4 ovarian): > 77.1 µM
GI50 (SF-268 CNS): 18.6 µM
TGI (SF-268 CNS): 53.4 µM
GI50 (HCT-116 colon): 17.2 µM
TGI (HCT-116 colon): 32.1 µM
GI50 (UACC-257 melanoma): 16.4 µM
TGI (UACC-257 melanoma): 30.1 µM
GI50 (PC-3 prostate): 21.4 µM
TGI (PC-3 prostate): > 60.4 µM
GI50 (NCI-H322M lung): 3.73 µM
TGI (NCI-H322M lung): 47.2 µM
GI50 (MDA-MB-435 melanoma): 22.8 µM
TGI (MDA-MB-435 melanoma): 48 µM
GI50 (SK-MEL-5 melanoma): 15.3 µM
TGI (SK-MEL-5 melanoma): 28.7 µM
GI50 (SW-620 colon): 7.58 µM
TGI (SW-620 colon): > 50.4 µM
GI50 (M14 melanoma): 17.6 µM
TGI (M14 melanoma): 31.5 µM
GI50 (OVCAR-8 ovarian): 27.9 µM
TGI (OVCAR-8 ovarian): > 100 µM
GI50 (HOP-92 NSCLC): 1.02 µM
TGI (HOP-92 NSCLC): 8.17 µM
GI50 (SNB-75 CNS): 12.3 µM
TGI (SNB-75 CNS): 38.2 µM
GI50 (HT29 colon): 18 µM
TGI (HT29 colon): 34.7 µM
GI50 (MCF7 breast): 15.5 µM
TGI (MCF7 breast): 29.7 µM
GI50 (HOP-62 NSCLC): 24.3 µM
TGI (HOP-62 NSCLC): > 74 µM
GI50 (NCI-H522 lung): 2.64 µM
TGI (NCI-H522 lung): 19.2 µM
GI50 (OVCAR-5 ovarian): 15.7 µM
TGI (OVCAR-5 ovarian): 47.6 µM
GI50 (MDA-MB-468 breast): 0.898 µM
TGI (MDA-MB-468 breast): 5.96 µM
GI50 (K-562 leukemia): 0.783 µM
TGI (K-562 leukemia): 14.4 µM
GI50 (HCC-2998 colon): 16 µM
TGI (HCC-2998 colon): 29.8 µM
GI50 (ACHN renal): 10.5 µM
TGI (ACHN renal): 60.6 µM
GI50 (MOLT-4 leukemia): 16.3 µM
TGI (MOLT-4 leukemia): 30.7 µM
GI50 (HCT-15 colon): 16.6 µM
TGI (HCT-15 colon): 33.5 µM
GI50 (SF-295 CNS): 21.5 µM
TGI (SF-295 CNS): > 55.2 µM
GI50 (RXF 393 renal): 12.2 µM
TGI (RXF 393 renal): 25.5 µM

NS(=O)(=O)NCCNc1nonc1C(=Nc1ccc(F)c(Br)c1)NO
GI50 (MDA-MB-231 breast): 67.2 µM
TGI (MDA-MB-231 breast): > 100 µM
GI50 (SR leukemia): 14.6 µM
TGI (SR leukemia): 28.9 µM
GI50 (A549 NSCLC): 30.9 µM
TGI (A549 NSCLC): > 100 µM
GI50 (BT-549 breast): 5.97 µM
TGI (BT-549 breast): > 56.3 µM
GI50 (HL-60(TB) leukemia): 18.9 µM
TGI (HL-60(TB) leukemia): 33.2 µM
GI50 (OVCAR-3 ovarian): 24 µM
TGI (OVCAR-3 ovarian): 76.8 µM
GI50 (T-47D breast): 23.9 µM
TGI (T-47D breast): > 74.5 µM
TGI (SF-539 CNS): > 100 µM
GI50 (SN12C renal): 35.2 µM
TGI (SN12C renal): > 100 µM
GI50 (UO-31 renal): 36 µM
TGI (UO-31 renal): > 100 µM
GI50 (DU-145 prostate): 48.2 µM
TGI (DU-145 prostate): > 100 µM
GI50 (KM12 colon): 8.9 µM
TGI (KM12 colon): > 100 µM
GI50 (EKVX NSCLC): 31.8 µM
TGI (EKVX NSCLC): > 100 µM
GI50 (COLO 205 colon): 21.8 µM
TGI (COLO 205 colon): > 60.6 µM
GI50 (CAKI-1 renal): 5.66 µM
TGI (CAKI-1 renal): > 100 µM
GI50 (MALME-3M melanoma): 30.5 µM
TGI (MALME-3M melanoma): > 100 µM
GI50 (SK-MEL-28 melanoma): 42.7 µM
TGI (SK-MEL-28 melanoma): > 100 µM
GI50 (SNB-19 CNS): 42.1 µM
TGI (SNB-19 CNS): > 100 µM
GI50 (U251 glioblastoma): 33.9 µM
TGI (U251 glioblastoma): > 100 µM
GI50 (CCRF-CEM leukemia): 17.6 µM
TGI (CCRF-CEM leukemia): 35.3 µM
GI50 (NCI-H460 NSCLC): 27.4 µM
TGI (NCI-H460 NSCLC): 73 µM
GI50 (OVCAR-4 ovarian): 21.4 µM
TGI (OVCAR-4 ovarian): 72.5 µM
GI50 (SF-268 CNS): 33.9 µM
TGI (SF-268 CNS): > 100 µM
GI50 (HCT-116 colon): 36.6 µM
TGI (HCT-116 colon): > 100 µM
GI50 (UACC-257 melanoma): 28.7 µM
TGI (UACC-257 melanoma): > 82.6 µM
GI50 (PC-3 prostate): 6.11 µM
TGI (PC-3 prostate): > 100 µM
GI50 (NCI-H322M lung): 34.2 µM
TGI (NCI-H322M lung): > 100 µM
GI50 (MDA-MB-435 melanoma): 42.5 µM
TGI (MDA-MB-435 melanoma): > 100 µM
GI50 (SK-MEL-5 melanoma): 35.9 µM
TGI (SK-MEL-5 melanoma): > 92.6 µM
GI50 (SW-620 colon): 42.2 µM
TGI (SW-620 colon): > 100 µM
GI50 (M14 melanoma): 38.9 µM
TGI (M14 melanoma): > 100 µM
GI50 (OVCAR-8 ovarian): 46.9 µM
TGI (OVCAR-8 ovarian): > 100 µM
GI50 (HOP-92 NSCLC): 29.6 µM
TGI (HOP-92 NSCLC): > 89.5 µM
GI50 (SNB-75 CNS): 21.4 µM
TGI (SNB-75 CNS): 60.2 µM
GI50 (HT29 colon): 41 µM
TGI (HT29 colon): > 100 µM
GI50 (MCF7 breast): 38.8 µM
TGI (MCF7 breast): > 100 µM
GI50 (HOP-62 NSCLC): 39.9 µM
TGI (HOP-62 NSCLC): > 100 µM
GI50 (NCI-H522 lung): 16.5 µM
TGI (NCI-H522 lung): 47.7 µM
GI50 (OVCAR-5 ovarian): 49.9 µM
TGI (OVCAR-5 ovarian): > 100 µM
GI50 (MDA-MB-468 breast): 14.6 µM
TGI (MDA-MB-468 breast): 33.1 µM
GI50 (K-562 leukemia): 27.8 µM
TGI (K-562 leukemia): > 100 µM
GI50 (HCC-2998 colon): 22.5 µM
TGI (HCC-2998 colon): 51.7 µM
GI50 (ACHN renal): 36.6 µM
TGI (ACHN renal): > 100 µM
GI50 (MOLT-4 leukemia): 15.9 µM
TGI (MOLT-4 leukemia): 29.8 µM
GI50 (HCT-15 colon): 51.6 µM
TGI (HCT-15 colon): > 100 µM
GI50 (SF-295 CNS): 11.7 µM
TGI (SF-295 CNS): > 78.6 µM
GI50 (RXF 393 renal): 4.11 µM
TGI (RXF 393 renal): > 31.6 µM
